# Results published in ChEMBL document CHEMBL1201862, “PubChem BioAssay data set” (2004).
#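 Results reflect a 48-hour exposure of cells in 96-well plates to compound at five concentrations. Abbreviation: GI50, concentration required for 50% inhibition of growth.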 The source made the active and inactive calls. Rule as the data show it: active = GI50 up to about 1.1 µM and inactive = higher.
# Columns and labels:
# Test in all cases: NCI-60 cell line screen, 48 h
# T47D = system: T47D
# PC-3 = system: PC-3
# NCI-H522 = system: NCI-H522
# HOP-92 = system: HOP-92
# SK-MEL-2 = system: SK-MEL-2
# OVCAR-8 = system: OVCAR-8
# SK-OV-3 = system: SK-OV-3
# MDA-N = system: MDA-N
# NCI-H23 = system: NCI-H23
# CAKI-1 = system: CAKI-1
# NCI-H460 = system: NCI-H460
# BT-549 = system: BT-549
# UACC-257 = system: UACC-257
# SF-268 = system: SF-268
# MOLT-4 = system: MOLT-4
# LOX IMVI = system: LOX IMVI
# A498 = system: A498
# SNB-19 = system: SNB-19
# COLO 205 = system: COLO 205
# MDA-MB-231 = system: MDA-MB-231
SMILES,GI50 (T47D),GI50 (PC-3),GI50 (NCI-H522),GI50 (HOP-92),GI50 (SK-MEL-2),GI50 (OVCAR-8),GI50 (SK-OV-3),GI50 (MDA-N),GI50 (NCI-H23),GI50 (CAKI-1),GI50 (NCI-H460),GI50 (BT-549),GI50 (UACC-257),GI50 (SF-268),GI50 (MOLT-4),GI50 (LOX IMVI),GI50 (A498),GI50 (SNB-19),GI50 (COLO 205),GI50 (MDA-MB-231)
OC(C1CCC=NN1C(O)(C(F)(F)F)C(F)(F)F)(C(F)(F)F)C(F)(F)F (stereo not given),> 10 µM (inactive),> 10 µM (inactive),> 10 µM (inactive),> 10 µM (inactive),> 10 µM (inactive),> 10 µM (inactive),> 10 µM (inactive),> 10 µM (inactive),> 10 µM (inactive),> 10 µM (inactive),> 10 µM (inactive),> 10 µM (inactive),> 10 µM (inactive),> 10 µM (inactive),> 10 µM (inactive),> 10 µM (inactive),> 10 µM (inactive),> 10 µM (inactive),> 10 µM (inactive),> 10 µM (inactive)
O=C1C(Cl)=C(N2CCOCC2)C(=O)c2c(O)ccc(O)c21,0.839 µM (active),0.536 µM (active),0.286 µM (active),0.291 µM (active),0.288 µM (active),0.368 µM (active),2.81 µM (inactive),0.176 µM (active),0.255 µM (active),0.433 µM (active),0.881 µM (active),0.173 µM (active),0.33 µM (active),1.36 µM (inactive),1.35 µM (inactive),0.186 µM (active),1.63 µM (inactive),1.78 µM (inactive),0.19 µM (active),0.216 µM (active)
CC(=O)O[C@H]1CC[C@H]2[C@@H]3CCC4C(C)=NNC(=O)C4[C@H]3CC[C@]12C (stereo not given in full),> 100 µM (inactive),> 100 µM (inactive),34 µM (inactive),37.9 µM (inactive),> 75.2 µM (inactive),38 µM (inactive),> 95.1 µM (inactive),> 100 µM (inactive),> 60.7 µM (inactive),> 90.2 µM (inactive),> 100 µM (inactive),> 45.3 µM (inactive),> 100 µM (inactive),34 µM (inactive),> 100 µM (inactive),> 38.6 µM (inactive),37.2 µM (inactive),33.5 µM (inactive),> 100 µM (inactive),33.3 µM (inactive)
Cc1ccc(N2C(=O)C(=O)N(/N=C3\C(=O)Nc4ccccc43)C2=S)cc1,38.2 µM (inactive),39.4 µM (inactive),63.2 µM (inactive),> 100 µM (inactive),30.3 µM (inactive),59.3 µM (inactive),> 100 µM (inactive),59.7 µM (inactive),86.7 µM (inactive),92.5 µM (inactive),31.5 µM (inactive),85.3 µM (inactive),> 100 µM (inactive),58.5 µM (inactive),28.8 µM (inactive),31.6 µM (inactive),> 100 µM (inactive),> 100 µM (inactive),42 µM (inactive),> 100 µM (inactive)
O=C1Nc2ccc(S(=O)(=O)NCCO)cc2/C1=C1/Nc2ccccc2C1=O,4.56 µM (inactive),12.2 µM (inactive),1.86 µM (inactive),13.8 µM (inactive),4.16 µM (inactive),11 µM (inactive),5.42 µM (inactive),> 100 µM (inactive),28.4 µM (inactive),> 100 µM (inactive),30.3 µM (inactive),3.98 µM (inactive),> 100 µM (inactive),9.59 µM (inactive),7.06 µM (inactive),42 µM (inactive),2.53 µM (inactive),8.81 µM (inactive),2.82 µM (inactive),12 µM (inactive)
Cc1ccc(-n2cc(-c3ccc(Cl)cc3)c3c(N/N=C4\SCC(=O)N4C)ncnc32)cc1,91.4 µM (inactive),2.72 µM (inactive),5.27 µM (inactive),2.62 µM (inactive),2.48 µM (inactive),5.09 µM (inactive),2.54 µM (inactive),5.19 µM (inactive),3.9 µM (inactive),4.23 µM (inactive),4.31 µM (inactive),15.6 µM (inactive),4.66 µM (inactive),7.05 µM (inactive),38.9 µM (inactive),5.64 µM (inactive),11.5 µM (inactive),9.59 µM (inactive),4.09 µM (inactive),4.99 µM (inactive)
COc1ccc2c(c1)[nH]c1c(/C=C/c3ccccc3)nccc12,23.5 µM (inactive),16.1 µM (inactive),12.4 µM (inactive),18.6 µM (inactive),16.2 µM (inactive),14.2 µM (inactive),13.8 µM (inactive),16.2 µM (inactive),15.3 µM (inactive),14.5 µM (inactive),13.2 µM (inactive),12.8 µM (inactive),16.1 µM (inactive),17.7 µM (inactive),7.55 µM (inactive),18.7 µM (inactive),12.3 µM (inactive),16 µM (inactive),3.83 µM (inactive),17.5 µM (inactive)
